Measurements taken from ChEMBL document CHEMBL1158532, “A novel kavalactone derivative protects against H2O2-induced PC12 cell death via Nrf2/ARE activation” (Bioorg Med Chem, 2010).
The source made the active and inactive calls. No cut-off for these calls is given here.

Assays:
[1] = biological target: T1, Nuclear factor erythroid 2-related factor 2 (Rattus norvegicus) (UniProt O54968); experiment: Activation of Nrf2 in rat PC12 cells at 10 uM after 24 hrs by antioxidant response element-driven luciferase reporter gene assay; assay type: functional, cell-based; settings: PC-12
T1 sequence (whole entry): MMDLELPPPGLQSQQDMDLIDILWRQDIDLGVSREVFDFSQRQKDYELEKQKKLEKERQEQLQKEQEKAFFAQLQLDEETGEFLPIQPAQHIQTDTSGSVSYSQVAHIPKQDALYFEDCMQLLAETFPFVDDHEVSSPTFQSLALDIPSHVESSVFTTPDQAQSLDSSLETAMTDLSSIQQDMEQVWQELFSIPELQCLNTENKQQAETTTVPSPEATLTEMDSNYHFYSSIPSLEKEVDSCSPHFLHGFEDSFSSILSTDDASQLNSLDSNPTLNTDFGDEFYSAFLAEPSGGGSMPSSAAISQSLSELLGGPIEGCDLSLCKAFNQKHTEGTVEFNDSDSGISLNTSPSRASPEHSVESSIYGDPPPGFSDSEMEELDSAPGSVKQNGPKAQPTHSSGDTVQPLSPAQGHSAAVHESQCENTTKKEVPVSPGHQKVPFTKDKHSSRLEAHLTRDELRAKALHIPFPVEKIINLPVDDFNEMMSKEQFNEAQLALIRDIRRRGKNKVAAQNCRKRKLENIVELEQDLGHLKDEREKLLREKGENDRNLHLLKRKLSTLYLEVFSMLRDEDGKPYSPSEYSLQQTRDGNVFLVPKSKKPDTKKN

PC-12 [2] = experiment: Induction of HO-1 protein expression in rat PC12 cells at 10 uM after 24 hrs by Western blot analysis; assay type: functional, cell-based
PC-12 [3] = experiment: Increase in HO-1 protein expression in rat PC12 cells at 10 uM treated 24 hrs before H202 challenge measured after 24 hrs by Western blot analysis; assay type: functional, cell-based
[4] = biological target: T1, Nuclear factor erythroid 2-related factor 2 (Rattus norvegicus); experiment: Activation of Nrf2 in rat PC12 cells at 10 uM after 24 hrs by antioxidant response element-driven luciferase reporter gene assay relative to yangonin; assay type: functional, cell-based; settings: PC-12
[5] = biological target: T1, Nuclear factor erythroid 2-related factor 2 (Rattus norvegicus); experiment: Activation of Nrf2 in rat PC12 cells at 10 uM after 24 hrs by antioxidant response element-driven luciferase reporter gene assay relative to kawain; assay type: functional, cell-based; settings: PC-12
[6] = biological target: T1, Nuclear factor erythroid 2-related factor 2 (Rattus norvegicus); experiment: Activation of Nrf2 in rat PC12 cells at 10 uM after 24 hrs by antioxidant response element-driven luciferase reporter gene assay relative to methysticin; assay type: functional, cell-based; settings: PC-12
PC-12 [7] = experiment: Induction of HO-1 protein expression in rat PC12 cells at 10 uM after 24 hrs by Western blot analysis relative to yangonin; assay type: functional
PC-12 [8] = experiment: Induction of HO-1 protein expression in rat PC12 cells at 10 uM after 24 hrs by Western blot analysis relative to kawain; assay type: functional
PC-12 [9] = experiment: Induction of HO-1 protein expression in rat PC12 cells at 10 uM after 24 hrs by Western blot analysis relative to methysticin; assay type: functional
PC-12 [10] = experiment: Cytotoxicity against rat PC12 cells at 100 uM after 24 hrs by WST8 assay; assay type: cell-based; settings: pc-12, 24 h
PC-12 [11] = experiment: Cytotoxicity against rat PC12 cells assessed as effect on cellular morphology at 50 to 100 uM after 24 hrs by WST8 assay; assay type: cell-based; settings: pc-12, 24 h
[12] = biological target: T1, Nuclear factor erythroid 2-related factor 2 (Rattus norvegicus); experiment: Activation of Nrf2 in rat PC12 cells after 24 hrs by antioxidant response element-driven luciferase reporter gene assay relative to yangonin; assay type: functional, cell-based; settings: PC-12
PC-12 [13] = experiment: Increase in HO-1 protein expression in rat PC12 cells at 10 uM after 3 hrs by Western blot analysis; assay type: functional, cell-based
PC-12 [14] = experiment: Induction of gamma-GCSc catalytic subunit protein expression in rat PC12 cells at 10 uM after 12 hrs by Western blot analysis; assay type: functional, cell-based
PC-12 [15] = experiment: Increase in NQO1 protein expression in rat PC12 cells at 10 uM after 3 hrs by Western blot analysis; assay type: functional, cell-based
PC-12 [16] = experiment: Induction of HO-1 protein expression in rat PC12 cells at 10 uM after 24 hrs by Western blot analysis relative to control; assay type: functional
PC-12 [17] = experiment: Induction of gamma-GCSc catalytic subunit protein expression in rat PC12 cells at 10 uM after 24 hrs by Western blot analysis relative to control; assay type: functional
PC-12 [18] = experiment: Induction of NQO1 protein expression in rat PC12 cells at 10 uM after 24 hrs by Western blot analysis relative to control; assay type: functional
[19] = biological target: T1, Nuclear factor erythroid 2-related factor 2 (Rattus norvegicus); experiment: Activation of Nrf2 in rat PC12 cells assessed as induction of translocation into nucleus at 10 uM after 30 mins by Western blot analysis; assay type: functional, cell-based; settings: PC-12
[20] = biological target: T1, Nuclear factor erythroid 2-related factor 2 (Rattus norvegicus); experiment: Activation of Nrf2 in rat PC12 cells assessed as induction of translocation into nucleus at 10 uM after 24 hrs by Western blot analysis; assay type: functional, cell-based; settings: PC-12
[21] = biological target: T2, Mitogen-activated protein kinase 1 and 3 (ERK2 and ERK1) (Rattus norvegicus) (UniProt P63086+P21708); experiment: Increase in Erk1/2 phosphorylation in rat PC12 cells at 10 uM after 5 mins by Western blot analysis; assay type: cell-based; settings: PC-12
[22] = biological target: T2, Mitogen-activated protein kinase 1 and 3 (ERK2 and ERK1) (Rattus norvegicus); experiment: Increase in Erk1/2 phosphorylation in rat PC12 cells at 10 uM after 6 hrs by Western blot analysis; assay type: cell-based; settings: PC-12
PC-12 [23] = experiment: Increase in p38 phosphorylation in rat PC12 cells at 10 uM after 5 mins by Western blot analysis; assay type: cell-based
[24] = biological target: RAC-alpha serine/threonine-protein kinase (Rattus norvegicus) (UniProt P47196); experiment: Increase in Akt phosphorylation in rat PC12 cells at 10 uM after 24 hrs by Western blot analysis; assay type: cell-based; settings: PC-12
PC-12 [25] = experiment: Induction of HO-1 protein expression in rat PC12 cells at 10 uM after 3 hrs by Western blot analysis in presence of 20 uM MEK1/2 inhibitor PD-98059; assay type: functional, cell-based
PC-12 [26] = experiment: Induction of HO-1 protein expression in rat PC12 cells at 10 uM after 3 hrs by Western blot analysis in presence of 5 uM p38 inhibitor SB-203580; assay type: functional, cell-based
PC-12 [27] = experiment: Induction of Nrf2 release in rat PC12 cells assessed as increase in intracellular ROS level at 10 uM after 1 hr by CM-H2-DCFDA staining-based fluorescence assay; assay type: functional, cell-based
PC-12 [28] = experiment: Induction of Nrf2 release in rat PC12 cells assessed as increase in intracellular ROS level at 10 uM after 3 hrs by CM-H2-DCFDA staining-based fluorescence assay; assay type: functional, cell-based
PC-12 [29] = experiment: Induction of HO-1 protein expression in rat PC12 cells at 10 uM after 3 hrs by Western blot analysis in presence of 2.5 […] N-acetyl-cysteine; assay type: functional, cell-based
PC-12 [30] = experiment: Neuroprotective activity against H202-induced rat PC12 cell death at 10 uM treated 24 hrs before H202 challenge measured after 24 hrs by WST8 assay; assay type: functional, cell-based

T2 sequence (P21708 whole entry, looked up): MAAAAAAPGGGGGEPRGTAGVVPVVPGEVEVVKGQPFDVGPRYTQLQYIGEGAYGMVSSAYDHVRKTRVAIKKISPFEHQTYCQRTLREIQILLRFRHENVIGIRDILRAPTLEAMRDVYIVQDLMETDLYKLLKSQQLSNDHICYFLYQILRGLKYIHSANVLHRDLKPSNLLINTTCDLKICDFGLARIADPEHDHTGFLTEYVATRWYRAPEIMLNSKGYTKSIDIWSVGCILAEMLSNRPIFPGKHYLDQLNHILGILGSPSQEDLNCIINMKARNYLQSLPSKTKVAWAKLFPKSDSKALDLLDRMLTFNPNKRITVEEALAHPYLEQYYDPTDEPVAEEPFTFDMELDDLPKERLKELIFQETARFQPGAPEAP
T2 sequence (P63086 whole entry, looked up): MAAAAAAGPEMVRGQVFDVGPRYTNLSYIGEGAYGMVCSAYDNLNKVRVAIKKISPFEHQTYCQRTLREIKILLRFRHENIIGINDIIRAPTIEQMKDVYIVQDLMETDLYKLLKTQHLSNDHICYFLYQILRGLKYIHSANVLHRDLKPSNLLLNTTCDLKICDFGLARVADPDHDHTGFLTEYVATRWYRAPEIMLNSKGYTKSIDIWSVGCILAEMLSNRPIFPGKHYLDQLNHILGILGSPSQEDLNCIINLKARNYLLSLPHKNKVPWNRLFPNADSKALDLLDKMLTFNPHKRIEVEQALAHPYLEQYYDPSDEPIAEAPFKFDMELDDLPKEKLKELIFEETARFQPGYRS
Sequence of RAC-alpha serine/threonine-protein kinase (Rattus norvegicus) (P47196 whole entry): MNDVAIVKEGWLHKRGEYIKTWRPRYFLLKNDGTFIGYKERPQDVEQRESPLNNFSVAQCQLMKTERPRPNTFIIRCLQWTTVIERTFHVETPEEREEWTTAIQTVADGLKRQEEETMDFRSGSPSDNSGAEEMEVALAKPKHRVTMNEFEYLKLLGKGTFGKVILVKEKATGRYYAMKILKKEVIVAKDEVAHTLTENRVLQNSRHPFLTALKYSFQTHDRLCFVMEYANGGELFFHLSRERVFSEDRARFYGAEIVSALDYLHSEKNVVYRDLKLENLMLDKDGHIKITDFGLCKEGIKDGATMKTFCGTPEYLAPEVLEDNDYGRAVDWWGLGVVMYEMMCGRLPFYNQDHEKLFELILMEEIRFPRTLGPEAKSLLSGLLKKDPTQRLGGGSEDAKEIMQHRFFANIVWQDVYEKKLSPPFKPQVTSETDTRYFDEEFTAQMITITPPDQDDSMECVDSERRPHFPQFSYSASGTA

SMILES: COC1=CC(=O)O[C@@H](/C=C/c2ccc3c(c2)OCO3)C1
- Activity [1]: Active
- Activity (PC-12 [2]): Active

SMILES: COc1ccc(/C=C/c2cc(OC)cc(=O)o2)cc1
- Activity [1]: Active
- Activity (PC-12 [2]): Active

SMILES: COC1=CC(=O)O[C@@H](/C=C/c2ccccc2)C1
- Activity [1]: Active
- Activity (PC-12 [2]): Active

SMILES: COCc1c(OC)cc(=O)oc1/C=C/c1c(Cl)cccc1Cl
- Activity (PC-12 [3]): Active
- fold change (FC) [4]: 2
- fold change (FC) [5]: 2
- fold change (FC) [6]: 2
- fold change (FC) (PC-12 [7]): 3
- fold change (FC) (PC-12 [8]): 3
- fold change (FC) (PC-12 [9]): 3
- Activity (PC-12 [10]): Non-toxic
- Activity (PC-12 [11]): Toxic
- Activity [12]: Dose-dependent effect
- Activity (PC-12 [13]): Active
- Activity (PC-12 [14]): Active
- Activity (PC-12 [15]): Active
- fold change (FC) (PC-12 [16]): 2
- fold change (FC) (PC-12 [17]): 2
- fold change (FC) (PC-12 [18]): 1.3
- Activity [19]: Active
- Activity [20]: Active
- Activity [21]: Active
- Activity [22]: inactive
- Activity (PC-12 [23]): Active
- Activity [24]: inactive
- Activity (PC-12 [25]): inactive
- Activity (PC-12 [26]): inactive
- Activity (PC-12 [27]): Active
- Activity (PC-12 [28]): inactive
- Activity (PC-12 [29]): inactive
- Activity (PC-12 [30]): Active
